# Patent US20110144160A1, “Antagonists of Prostaglandin D2 Receptors” (Amira Pharmaceuticals, Inc., priority 2008, published 2011)
# pIC50: −log10 of the molar value.
# Target: T1, human DP2 receptor (Homo sapiens, UniProt Q9Y5Y4)
# T1 construct: expressed in transfected cells
# T1 sequence (Q9Y5Y4 1-395): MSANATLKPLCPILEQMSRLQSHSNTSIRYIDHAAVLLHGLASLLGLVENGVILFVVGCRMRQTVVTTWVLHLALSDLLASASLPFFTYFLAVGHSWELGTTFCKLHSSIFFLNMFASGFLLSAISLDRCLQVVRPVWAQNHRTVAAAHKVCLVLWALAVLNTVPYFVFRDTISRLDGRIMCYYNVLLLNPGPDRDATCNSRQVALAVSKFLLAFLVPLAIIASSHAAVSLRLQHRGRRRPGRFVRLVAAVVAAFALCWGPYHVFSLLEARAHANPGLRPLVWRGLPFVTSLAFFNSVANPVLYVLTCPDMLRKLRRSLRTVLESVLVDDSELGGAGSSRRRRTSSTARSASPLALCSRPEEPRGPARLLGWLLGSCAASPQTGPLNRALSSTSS
# Assay: DP2/CRTH2 binding assay ([3H]PGD2 radioligand)
# Conditions: membranes of HEK293 cells expressing recombinant human DP2, 1 nM [3H]PGD2; read-out: hDP2
# Description: The ability of a compound to bind to the human DP2 receptor is assessed via a radioligand binding assay using [^3H]PGD2. HEK293 cells stably expressing recombinant human DP2 are resuspended in 10 mM Hepes, 7.4 containing 1 mM DTT, lysed and centrifuged at 75,000×g to pellet the membranes. The membranes are resuspended in 10 mM Hepes, 7.4 containing 1 mM DTT and 10% glycerol to approximately 5 mg protein/ml. Membranes (2-10 μg protein/well) are incubated in 96-well plates with 1 nM [^3H]PGD2 and test compound in Assay Buffer (50 mM Hepes, 10 mM MnCl2, 1 mM EDTA, plus or minus 0.2% human serum albumin, pH 7.4) for 60 minutes at room temperature. The reactions are terminated by rapid filtration through Whatman GF/C glass fibre filter plates. The filter plates were pre-soaked in 0.33% polythylenimine for 30 minutes at room temperature then washed in Wash Buffer (50 mM Hepes, 0.5 M NaCl pH 7.4) prior to harvesting. After harvesting, the filter plates are washed 3 times with 1 ml cold Wash Buffer then dried. Scintillant is then added to the plates and the radioactivity retained on the filters is determined on a Packard TopCount (Perkin Elmer). Specific binding is determined as total radioactive binding minus non-specific binding in the presence of 10 μM PGD2. IC50s were determined using GraphPad prism analysis of drug titration curves.
row,pIC50,SMILES
1,> 6.52,"COc1ccc(CC(=O)O)cc1Oc1ccc(NC(=O)c2ccc(Cl)cc2)cc1C[S+]([O-])C(C)C (centres unmarked) [Compound 21, {3-[4-(4-Chloro-benzoylamino)-2-(propane-2-sulfinylmethyl)-phenoxy]-4-methoxy-phenyl}-acetic acid]"
2,> 6.52,"COc1ccc(CC(=O)O)cc1Oc1ccc(NC(=O)c2ccc(Cl)cc2)cc1CS(=O)(=O)C(C)C [Compound 22, {3-[4-(4-Chloro-benzoylamino)-2-(propane-2-sulfonylmethyl)-phenoxy]-4-methoxy-phenyl}-acetic acid]"
3,> 6.52,"COc1ccc(CC(=O)O)cc1Oc1ccc(NC(=O)c2ccc(Cl)cc2)cc1C[S+]([O-])c1ccccc1 (centres unmarked) [Compound 23, {3-[2-Benzenesulfinylmethyl-4-(4-chloro-benzoylamino)-phenoxy]-4-methoxy-phenyl}-acetic acid]"
4,> 6.52,"COc1ccc(CC(=O)O)cc1Oc1ccc(NC(=O)c2ccc(Cl)cc2)cc1CS(=O)(=O)c1ccccc1 [Compound 24, {3-[2-Benzenesulfonylmethyl-4-(4-chloro-benzoylamino)-phenoxy]-4-methoxy-phenyl}-acetic acid]"
5,> 6.52,"CCNC(=O)c1ccc(Oc2cc(CC(=O)O)ccc2OC)c(CSC(C)C)c1 [Compound 25, [3-(4-Ethylcarbamoyl-2-isopropylsulfanylmethyl-phenoxy)-4-methoxy-phenyl]-acetic acid]"
6,> 6.52,"COc1ccc(CC(=O)O)cc1Oc1ccc(C(=O)NCc2ccc(Cl)cc2)cc1CSC(C)C [Compound 26, {3-[4-(4-Chloro-benzylcarbamoyl)-2-isopropylsulfanylmethyl-phenoxy]-4-methoxy-phenyl}-acetic acid]"
7,> 6.52,"COc1ccc(CC(=O)O)cc1Oc1ccc(C(=O)NCCc2ccc(F)cc2)cc1CSC(C)C [Compound 27, (3-{4-[2-(4-Fluoro-phenyl)-ethylcarbamoyl]-2-isopropylsulfanylmethyl-phenoxy}-4-methoxy-phenyl)-acetic acid]"
8,> 6.52,"CC(C)(C)C(=O)Nc1ccc(Oc2cc(Cl)cc(CC(=O)O)c2)c(CSCC(F)(F)F)c1 [Compound 28, {3-Chloro-5-[4-(2,2-dimethyl-propionylamino)-2-(2,2,2-trifluoro-ethylsulfanylmethyl)-phenoxy]-phenyl}-acetic acid]"
9,> 6.52,"CC(C)(C)C(=O)Nc1ccc(Oc2cc(Cl)cc(CC(=O)O)c2)c(CS(=O)(=O)CC(F)(F)F)c1 [Compound 29, {3-Chloro-5-[4-(2,2-dimethyl-propionylamino)-2-(trifluoro-ethanesulfonylmethyl)-phenoxy]-phenyl}-acetic acid]"
10,> 6.52,"CC(C)S(=O)(=O)Cc1cc(NC(=O)C(C)(C)C)ccc1Oc1cc(Cl)cc(CC(=O)O)c1 [Compound 31, {3-Chloro-5-[4-(2,2-dimethyl-propionylamino)-2-(propane-2-sulfonylmethyl)-phenoxy]-phenyl}-acetic acid]"
11,> 6.52,"CC(C)(C)C(=O)Nc1ccc(Oc2cc(CC(=O)O)cc(C(F)(F)F)c2)c(CS(=O)(=O)CC(F)(F)F)c1 [Compound 33, {3-[4-(2,2-Dimethyl-propionylamino)-2-(trifluoro-ethanesulfonylmethyl)-phenoxy]-5-trifluoromethyl-phenyl}-acetic acid]"
12,> 6.52,"COc1ccc(CC(=O)O)cc1Oc1ccc(N(C)C(=O)C(C)(C)C)cc1CSCC(F)(F)F [Compound 34, {3-[4-[(2,2-Dimethyl-propionyl)-methyl-amino]-2-(2,2,2-trifluoro-ethylsulfanylmethyl)-phenoxy]-4-methoxy-phenyl}-acetic acid]"
13,> 6.52,"COc1ccc(CC(=O)O)cc1Oc1ccc(NC(=O)C2CC2)cc1CSC(C)(C)C [Compound 35, {3-[2-tert-butylsulfanylmethyl-4-(cyclopropanecarbonyl-amino)-phenoxy]-4-methoxy-phenyl}-acetic acid]"
14,> 6.52,"COc1ccc(CC(=O)O)cc1Oc1ccc(NC(=O)C(C)C)cc1CSC(C)(C)C [Compound 36, [3-(2-tert-Butylsulfanylmethyl-4-isobutyrylamino-phenoxy)-4-methoxy-phenyl]-acetic acid]"
15,> 6.52,"COc1ccc(CC(=O)O)cc1Oc1ccc(NC(=O)CC(C)(C)C)cc1CSC(C)(C)C [Compound 37, {3-[2-tert-Butylsulfanylmethyl-4-(3,3-dimethyl-butyrylamino)-phenoxy]-4-methoxy-phenyl}-acetic acid]"
16,6.00 to 6.52,"COc1ccc(CC(=O)O)cc1Oc1ccc(N2CCOC2=O)cc1CSCC(F)(F)F [Compound 38, {4-Methoxy-3-[4-(2-oxo-oxazolidin-3-yl)-2-(2,2,2-trifluoro-ethylsulfanylmethyl)-phenoxy}-phenyl]-acetic acid]"
17,> 6.52,"COc1ccc(CC(=O)O)cc1Oc1ccc(C(=O)NC(C)(C)C)cc1CSC(C)(C)C [Compound 39, [3-(4-tert-Butylcarbamoyl-2-tert-butylsulfanylmethyl-phenoxy)-4-methoxy-phenyl]-acetic acid]"
18,> 6.52,"COc1ccc(CC(=O)O)cc1Oc1ccc(C(=O)NCC(=O)c2ccccc2)cc1CSC(C)(C)C [Compound 40, {3-[2-tert-butylsulfanylmethyl-4-(2-oxo-2-phenyl-ethylcarbamoyl)-phenoxy]-4-methoxy-phenyl}-acetic acid]"
19,> 6.52,"COc1ccc(CC(=O)O)cc1Oc1ccc(C(=O)NC(C)(C)Cc2ccc(F)cc2)cc1CSC(C)(C)C [Compound 41, (3-{2-tert-butylsulfanylmethyl-4-[2-(4-fluoro-phenyl)-1,1-dimethyl-ethylcarbamoyl]-phenoxy}-4-methoxy-phenyl)-acetic acid]"
20,< 6.00,"COc1ccc(CC(=O)O)cc1Oc1ccc(C(=O)N2CCCCC2)cc1CSC(C)(C)C [Compound 42, {3-[2-tert-butylsulfanylmethyl-4-(piperidine-1-carbonyl)-phenoxy]-4-methoxy-phenyl}-acetic acid]"
21,> 6.52,"COc1ccc(NC(=O)c2ccc(Oc3cc(CC(=O)O)ccc3OC)c(CSC(C)(C)C)c2)cn1 [Compound 43, {3-[2-tert-butylsulfanylmethyl-4-(6-methoxy-pyridin-3-ylcarbamoyl)-phenoxy]-4-methoxy-phenyl}-acetic acid]"
22,> 6.52,"COc1ccc(CC(=O)O)cc1Oc1ccc(C(=O)NCC(F)(F)F)cc1CSC(C)(C)C [Compound 44, {3-[2-tert-butylsulfanylmethyl-4-(2,2,2-trifluoro-ethylcarbamoyl)-phenoxy]-4-methoxy-phenyl}-acetic acid]"
23,< 6.00,"COc1ccc(CC(=O)O)cc1Oc1ccc(C(=O)N(C)C(C)C)cc1CSC(C)(C)C [Compound 45, {3-[2-tert-butylsulfanylmethyl-4-(isopropyl-methyl-carbamoyl)-phenoxy]-4-methoxy-phenyl}-acetic acid]"
24,6.00 to 6.52,"COc1ccc(CC(=O)O)cc1Oc1ccc(C(=O)NCC(C)(C)C)cc1CSC(C)(C)C [Compound 46, {3-[2-tert-butylsulfanylmethyl-4-(2,2-dimethyl-propylcarbamoyl)-phenoxy]-4-methoxy-phenyl}-acetic acid]"
25,> 6.52,"CC(C)(C)SCc1cc(NC(=O)C(C)(C)C)ccc1Oc1cc(Cl)cc(CC(=O)O)c1 [Compound 47, {3-[2-tert-Butylsulfanylmethyl-4-(2,2-dimethyl-propionylamino)-phenoxy]-5-chloro-phenyl}-acetic acid]"
26,> 6.52,"CC(C)(C)C(=O)Nc1ccc(Oc2cc(Cl)cc(CC(=O)O)c2)c(CS(=O)(=O)C(C)(C)C)c1 [Compound 48, {3-Chloro-5-[4-(2,2-dimethyl-propionylamino)-2-(2-methyl-propane-2-sulfonylmethyl)-phenoxy]-phenyl}-acetic acid]"
27,> 6.52,"CC(C)(C)C(=O)Nc1ccc(Oc2cc(CC(=O)O)ccc2OC(F)F)c(CSCC(F)(F)F)c1 [Compound 49, {4-Difluoromethoxy-3-[4-(2,2-dimethyl-propionylamino)-2-(2,2,2-trifluoro-ethylsulfanylmethyl)-phenoxy]-phenyl}-acetic acid]"
28,> 6.52,"CC(C)(C)C(=O)Nc1ccc(Oc2cc(CC(=O)O)ccc2OC(F)F)c(CS(=O)(=O)CC(F)(F)F)c1 [Compound 50, {4-Difluoromethoxy-3-[4-(2,2-dimethyl-propionylamino)-2-(trifluoro-ethanesulfonylmethyl)-phenoxy]-phenyl}-acetic acid]"
29,> 6.52,"Cc1ccc(CC(=O)O)cc1Oc1ccc(NC(=O)C(C)(C)C)cc1CSCC(F)(F)F [Compound 51, {3-[4-(2,2-Dimethyl-propionylamino)-2-(2,2,2-trifluoro-ethylsulfanylmethyl)-phenoxy]-4-methyl-phenyl}-acetic acid]"
